Measured values from PubChem BioAssay AID248 (DTP/NCI, 2004).
“And” between values parts separate entries of the source, which are not always exact repeats. Equal entries are not always repeated. Inconclusive results and toxic doses are left out. Cut-off read from the data, not from the text of the source: active = T/C of 150% or more; inactive = T/C below 125%.

System: L1210 leukemia ip in BDF1 mice, survival T/C
Test: NCI In Vivo Anticancer Drug Screen. Data for tumor model L1210 Leukemia (intraperitoneal) in B6D2F1 (BDF1) mice
Details: endpoint: mean survival time, higher = longer survival
How it was run: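 Value reflects the ratio of survival in compound-treated mice to survival in vehicle-treated controls, with both groups carrying the same transplanted tumor.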

[1] = dose: 100.0 mg/kg/injection, schedule: Q01DX009 (ip), vehicle: saline
[2] = dose: 100.0 mg/kg/injection, schedule: Q04DX003 (ip), vehicle: saline
[3] = dose: 200.0 mg/kg/injection, schedule: Q01DX009 (ip), vehicle: saline
[4] = dose: 200.0 mg/kg/injection, schedule: Q04DX003 (ip), vehicle: saline
[5] = dose: 400.0 mg/kg/injection, schedule: Q04DX003 (ip), vehicle: saline
[6] = dose: 100.0 mg/kg/injection, schedule: Q04DX002 (ip), vehicle: saline with Tween-80
[7] = dose: 200.0 mg/kg/injection, schedule: Q04DX002 (ip), vehicle: saline with Tween-80
[8] = dose: 400.0 mg/kg/injection, schedule: Q04DX002 (ip), vehicle: saline with Tween-80
[9] = dose: 100.0 mg/kg/injection, schedule: Q01DX009 (ip), vehicle: Klucel (hydroxypropylcellulose) (HPC)
[10] = dose: 100.0 mg/kg/injection, schedule: Q04DX003 (ip), vehicle: Klucel (hydroxypropylcellulose) (HPC)
[11] = dose: 200.0 mg/kg/injection, schedule: Q01DX009 (ip), vehicle: Klucel (hydroxypropylcellulose) (HPC)
[12] = dose: 200.0 mg/kg/injection, schedule: Q04DX003 (ip), vehicle: Klucel (hydroxypropylcellulose) (HPC)
[13] = dose: 400.0 mg/kg/injection, schedule: Q04DX003 (ip), vehicle: Klucel (hydroxypropylcellulose) (HPC)
[14] = dose: 100.0 mg/kg/injection, schedule: Q01DX001 (ip), vehicle: carboxymethylcellulose (CMC)
[15] = dose: 200.0 mg/kg/injection, schedule: Q01DX001 (ip), vehicle: carboxymethylcellulose (CMC)
[16] = dose: 400.0 mg/kg/injection, schedule: Q01DX001 (ip), vehicle: carboxymethylcellulose (CMC)
[17] = dose: 100.0 mg/kg/injection, schedule: Q04DX003 (ip), vehicle: saline with Tween-80
[18] = dose: 200.0 mg/kg/injection, schedule: Q04DX003 (ip), vehicle: saline with Tween-80
[19] = dose: 400.0 mg/kg/injection, schedule: Q04DX003 (ip), vehicle: saline with Tween-80

Measured: T/C

CC1(C)CC(=O)c2ccccc21
inactive: dose: 25.0 mg/kg/injection, schedule: Q01DX009 (ip), vehicle: saline 101 % of control | dose: 50.0 mg/kg/injection, schedule: Q01DX009 (ip), vehicle: saline 94 % of control and 109 % of control | [1] 101 % of control and 102 % of control | [2] 100 % of control | [3] 104 % of control | [4] 96 % of control | [5] 102 % of control

CCN(CC)S(=O)(=O)NC1C(=O)N(c2ccccc2)N(C)C1C (centres undefined)
inactive: [6] 104 % of control | [7] 101 % of control | [8] 104 % of control

OCc1cc(Cl)ccc1O
inactive: dose: 100.0 mg/kg/injection, schedule: Q01DX009 (ip), vehicle: other 91 % of control | dose: 100.0 mg/kg/injection, schedule: Q04DX003 (ip), vehicle: other 103 % of control | dose: 200.0 mg/kg/injection, schedule: Q01DX009 (ip), vehicle: other 120 % of control | dose: 200.0 mg/kg/injection, schedule: Q04DX003 (ip), vehicle: other 95 % of control | dose: 400.0 mg/kg/injection, schedule: Q04DX003 (ip), vehicle: other 93 % of control

O=C(CCCN1CCN(c2ccccn2)CC1)c1ccc(F)cc1
inactive: dose: 12.5 mg/kg/injection, schedule: Q01DX009 (ip), vehicle: Klucel (hydroxypropylcellulose) (HPC) 96 % of control and 106 % of control | dose: 25.0 mg/kg/injection, schedule: Q01DX009 (ip), vehicle: Klucel (hydroxypropylcellulose) (HPC) 97 % of control and 101 % of control and 106 % of control | dose: 25.0 mg/kg/injection, schedule: Q04DX003 (ip), vehicle: Klucel (hydroxypropylcellulose) (HPC) 97 % of control | dose: 50.0 mg/kg/injection, schedule: Q01DX009 (ip), vehicle: Klucel (hydroxypropylcellulose) (HPC) 108 % of control and 109 % of control and 114 % of control | dose: 50.0 mg/kg/injection, schedule: Q04DX003 (ip), vehicle: Klucel (hydroxypropylcellulose) (HPC) 108 % of control | [9] 108 % of control and 110 % of control | [10] 103 % of control | [11] 105 % of control and 110 % of control | [12] 123 % of control

CC1(C)C2CCC1(C)C(c1ccc(O)cc1)C2 (centres undefined)
inactive: [10] 104 % of control | [12] 101 % of control | [13] 102 % of control

O=C(COc1ccccc1)c1ccccc1
inactive: dose: 12.5 mg/kg/injection, schedule: Q04DX002 (ip), vehicle: Klucel (hydroxypropylcellulose) (HPC) 93 % of control | dose: 25.0 mg/kg/injection, schedule: Q04DX002 (ip), vehicle: Klucel (hydroxypropylcellulose) (HPC) 104 % of control | dose: 50.0 mg/kg/injection, schedule: Q04DX002 (ip), vehicle: Klucel (hydroxypropylcellulose) (HPC) 96 % of control | dose: 200.0 mg/kg/injection, schedule: Q04DX002 (ip), vehicle: Klucel (hydroxypropylcellulose) (HPC) 95 % of control

C=Cc1cc[n+](CCCCC[n+]2ccc(C=C)cc2)cc1
inactive: [14] 96 % of control | [15] 98 % of control | [16] 93 % of control

CC(=O)OC(C)CN(C)C (centres undefined)
inactive: [1] 103 % of control | [2] 103 % of control | [3] 100 % of control | [4] 105 % of control | dose: 400.0 mg/kg/injection, schedule: Q01DX009 (ip), vehicle: saline 100 % of control | [5] 93 % of control

COc1ccc(N2CCN(/C=C/C(=O)c3ccc(C)cc3C)CC2)cc1
inactive: [17] 97 % of control | [18] 95 % of control | [19] 106 % of control

O=c1[nH]cc(O)c(=O)[nH]1
inactive: dose: 50.0 mg/kg/injection, schedule: Q01DX001 (ip), vehicle: carboxymethylcellulose (CMC) 100 % of control | dose: 62.5 mg/kg/injection, schedule: Q#A X018 (ip), vehicle: saline 98 % of control | [14] 102 % of control | dose: 125.0 mg/kg/injection, schedule: Q#A X018 (ip), vehicle: saline 104 % of control | dose: 176.0 mg/kg/injection, schedule: Q01DX Z (ip), vehicle: carboxymethylcellulose (CMC) 107 % of control | [15] 107 % of control | dose: 250.0 mg/kg/injection, schedule: Q#A X018 (ip), vehicle: saline 115 % of control | dose: 267.0 mg/kg/injection, schedule: Q01DX015 (ip), vehicle: saline 115 % of control | dose: 267.0 mg/kg/injection, schedule: Q01DX Z (ip), vehicle: carboxymethylcellulose (CMC) 120 % of control | [16] 100 % of control | dose: 400.0 mg/kg/injection, schedule: Q01DX015 (ip), vehicle: saline 120 % of control | dose: 600.0 mg/kg/injection, schedule: Q01DX015 (ip), vehicle: saline 119 % of control

CC(=O)Nc1ccc(S(=O)(=O)NC(=O)NC(C)C)cc1
inactive: [17] 103 % of control | [18] 97 % of control | [19] 100 % of control

CC(C)C(=O)Nc1ccc(S(=O)(=O)Cl)cc1
inactive: [17] 95 % of control | [18] 90 % of control | [19] 86 % of control

CC1OC2CCCCC2O1 (centres undefined)
inactive: dose: 50.0 mg/kg/injection, schedule: Q01DX009 (ip), vehicle: saline with Tween-80 97 % of control | dose: 100.0 mg/kg/injection, schedule: Q01DX009 (ip), vehicle: saline with Tween-80 97 % of control | dose: 200.0 mg/kg/injection, schedule: Q01DX009 (ip), vehicle: saline with Tween-80 94 % of control

CC(=O)Nc1ccc(C=Nc2ccccc2)cc1
inactive: [9] 107 % of control | [10] 96 % of control | [11] 102 % of control | [12] 97 % of control | dose: 400.0 mg/kg/injection, schedule: Q01DX009 (ip), vehicle: Klucel (hydroxypropylcellulose) (HPC) 111 % of control | [13] 97 % of control

O=[N+]([O-])c1ccccc1N1CCCCC1
inactive: [10] 97 % of control | [12] 89 % of control | [13] 109 % of control

[CH3][Sn]([c]1ccccc1)([c]1ccccc1)[c]1ccccc1
inactive: [6] 91 % of control | [7] 95 % of control | [8] 103 % of control

CCOC(=O)c1ccccc1N(O)C(=O)Nc1ccc(C)cc1
inactive: [17] 97 % of control | [18] 105 % of control | [19] 109 % of control

Oc1ccccc1/C=N/Nc1ccc2ccccc2n1
inactive: dose: 75.0 mg/kg/injection, schedule: Q01DX001 (ip), vehicle: saline with Tween-80 93 % of control | dose: 150.0 mg/kg/injection, schedule: Q01DX001 (ip), vehicle: saline with Tween-80 90 % of control | dose: 300.0 mg/kg/injection, schedule: Q01DX001 (ip), vehicle: saline with Tween-80 93 % of control

O=c1cc(CBr)c2ccccc2[nH]1
inactive: dose: 5.0 mg/kg/injection, schedule: Q01DX001 (ip), vehicle: saline 100 % of control | dose: 6.25 mg/kg/injection, schedule: Q01DX009 (ip), vehicle: saline with Tween-80 105 % of control | dose: 10.0 mg/kg/injection, schedule: Q01DX001 (ip), vehicle: saline 94 % of control | dose: 12.5 mg/kg/injection, schedule: Q01DX009 (ip), vehicle: saline with Tween-80 90 % of control | dose: 20.0 mg/kg/injection, schedule: Q01DX001 (ip), vehicle: saline 100 % of control | dose: 40.0 mg/kg/injection, schedule: Q01DX001 (ip), vehicle: saline 103 % of control | dose: 80.0 mg/kg/injection, schedule: Q01DX001 (ip), vehicle: saline 97 % of control
